Converted amounts (≈) assume the structure as drawn. Where a SMILES comes first, the peptide text is derived from it. Bridges are numbered along the chain shown (N, C = ends).
Key:
[1] = tested on: E. coli 1499; assay: MIC/MBC broth dilution, standard strain; type: cell-based
Experimental: (§1) The minimum inhibitory concentration (MIC) refers to the lowest concentration that can produce a significant hindrance to bacterial growth in a drug sensitivity test by adopting a broth dilution, with certain refinements and modifications based on the previous description ([25], [26]). In short, MccJ25 was dissolved in sterilized distilled water (SDW), serial 2-fold dilutions were prepared in Mueller-Hinton broth (MHB) through a 96-well microtiter plate, and the final concentration of MccJ25 was maintained in the range of 0.003125 to 256 μg/mL. Then, 2 μL of standard and clinically relevant overnight broth cultures of bacteria were inoculated into each well at a concentration of 5 × 10^6 CFU/mL. Microtiter plates were incubated at 37°C for one full day. Two groups were set up: positive (medium with inoculum) and negative (medium only) controls. The minimum bactericidal concentration (MBC) was measured in LB medium and refers to the first drug dilution value at which the initial bacterial concentration was reduced by 99.99%. The final analysis was determined by the results of three replicated and independent experiments. To further assess and clarify the antimicrobial activity of MccJ25, the protective ability against E. coli adhesion, live/dead assay, and killing curve were performed, the detailed methods were provided in Supplementary Materials .

[2] = tested on: E. coli ATCC25922; assay: MIC/MBC broth dilution, standard strain; type: cell-based
Experimental: as §1

[3] = tested on: E. coli CVCC1515; assay: MIC/MBC broth dilution, standard strain; type: cell-based
Experimental: as §1

[4] = tested on: Salmonella enteritidis CMCC50336; assay: MIC/MBC broth dilution, standard strain; type: cell-based
Experimental: as §1

[5] = tested on: Shigella flexneri CMCC51571; assay: MIC/MBC broth dilution, standard strain; type: cell-based; conditions: LB medium, 99.99% reduction; three independent experiments
Experimental: as §1

[6] = tested on: E. coli K88
Experimental: The resistance of MccJ25 to pepsin, trypsin and chymotrypsin was evaluated based on previous studies ([26]), with minor modifications. E. coli K88 cells were prepared (approximately 1 × 10^7 CFU/mL), and 1 mL of the bacterial suspension and MccJ25 were transferred into 9 mL of medium. For the control, MccJ25 was not added. LB agar inoculated with E. coli K88 cells (~10^5 viable cells/mL) was poured onto a plate containing an Oxford cup to form individual wells. Then, 2 and 4 h MccJ25 (1 × MIC) previously subjected to different treatments were added to the wells. The agar overlay was incubated overnight at 37°C, and the diameter of the growth inhibition zone was measured.
The simulated gastric fluid (SGF) and simulated intestinal fluid (SIF) were mainly based on the relevant contents of the Chinese Pharmacopoeia as described previously ([26]). SGF was configurated with 10 mg/mL pepsin, 0.03 M NaCl was used to blend the pH to 1.5, while SIF was configured with 10 mg/mL trypsin, 0.05 M KH2PO4 was used to blended pH as 7. SGF and SIF were then measured separately, and the antimicrobial activity of MccJ25 in serum was determined. E. coli K88 cells were grown in MHB (Difco Laboratories, Detroit, MI, USA). In short, 1 mL of the bacterial suspension and MccJ25 were transferred into 9 mL of medium. The control group was as follows: no MccJ25 was added to it. E. coli K88 cells with a live cell count maintained at approximately 10^5 cells per milliliter were inoculated on LB agar, which was then poured into plates equipped with Oxford cups, thus forming wells. Then, MccJ25 (1 × MIC) previously treated with SGF, SIF and serum for 2, 4, and 6 h was added to these wells. One of the agar substances covering the wells needs to be incubated overnight at 37°C, and finally, the size of its growth inhibition area, i.e., the diameter, needs to be determined.

[7] = LPS neutralization, chromogenic limulus amebocyte lysate assay; type: biochemical, E. coli; conditions: 8 μg/mL MccJ25, LPS 1 EU/mL, 37°C, A405
Experimental: The neutralizing impacts of MccJ25 on LPS were assessed according to a color-emitting […] assay. Levels of E. coli LPS (1 EU/mL) were prepared and combined with various concentrations of MccJ25 (1 to 128 µg/mL) and inoculated in the wells of sterile microtiter plates at 37°C. Then, 50 μL of the above mixture was extracted, the same volume of […] reagent was added, and the mixture was incubated for 10 min at 37°C. […] The reaction was finished by adding 25% acetic acid, and finally, its absorbance value at 405 nm was measured.

[8] = tested on: E. coli O111:B4 LPS-challenged BALB/c mice; assay: LPS-challenged mice experiment (septicemia model); type: in vivo; conditions: LPS 15 mg/kg i.p.; MccJ25 4.55 and 9.1 mg/kg BW; followed 72 h
[9] = LB medium, 99.99% reduction, three independent experiments
[10] = broth dilution in MHB, 37°C, one day, three independent experiments

SMILES: CC[C@H](C)[C@H](NC(=O)CNC(=O)[C@@H](NC(=O)[C@H](Cc1ccccc1)NC(=O)[C@H](Cc1ccc(O)cc1)NC(=O)[C@@H]1CCC(=O)NCC(=O)NCC(=O)N[C@@H](C)C(=O)NCC(=O)N[C@@H](Cc2c[nH]cn2)C(=O)N[C@@H](C(C)C)C(=O)N2CCC[C@H]2C(=O)N1)C(C)C)C(=O)NCC(=O)N[C@H](C(=O)N1CCC[C@H]1C(=O)N[C@H](C(=O)N[C@@H](CO)C(=O)N[C@@H](Cc1ccccc1)C(=O)N[C@@H](Cc1ccc(O)cc1)C(=O)NCC(=O)O)[C@@H](C)CC)[C@@H](C)O [MccJ25, microcin J25] (GGAGHVPEYFVGIGTPISFYG-OH; lactam N-8 (inferred); C-terminus assumed)
- MBC [1, 9]: 1.000 µg/mL (≈ 0.475 µM)
- MIC [1, 10]: 0.400 µg/mL (≈ 0.19 µM)
- MIC/MBC ([1]; ratio): 0.400
- MBC [2, 9]: 0.500 µg/mL (≈ 0.237 µM)
- MIC [2, 10]: 0.125 µg/mL (≈ 0.0593 µM)
- MIC/MBC ([2]; ratio): 0.250
- MBC [3, 9]: 2.000 µg/mL (≈ 0.949 µM)
- MIC [3, 10]: 0.500 µg/mL (≈ 0.237 µM)
- MIC/MBC ([3]; ratio): 0.250
- MBC [4, 9]: 4.000 µg/mL (≈ 1.9 µM)
- MIC [4, 10]: 2.000 µg/mL (≈ 0.949 µM)
- MIC/MBC ([4]; ratio): 0.500
- MBC [5]: 0.500 µg/mL (≈ 0.237 µM)
- growth inhibition zone after heat treatment ([6]; MccJ25 1 × MIC pre-treated at 121°C for 20 minutes, Oxford cup, LB agar, overnight 37°C, n = 6): greater than 22 mm
- growth inhibition zone after pH treatment ([6]; MccJ25 1 × MIC pre-treated at pH 2.0 to 9.0 for 2 h, Oxford cup, LB agar, overnight 37°C, n = 6): greater than 22 mm
- antimicrobial activity after SIF, SGF or serum treatment ([6]; MccJ25 1 × MIC pre-treated with SGF, SIF and serum for 2, 4 and 6 h, inhibition zone): essentially the same as that of MccJ25 subjected to a single treatment
- antimicrobial activity after protease challenge ([6]; MccJ25 1 × MIC pre-treated with pepsin, trypsin or chymotrypsin for 2 and 4 h, inhibition zone): retained
- LPS neutralization [7]: 92.59%
- survival rate [8]: increased

From publication PMC8894198, “Biosynthetic Microcin J25 Exerts Strong Antibacterial, Anti-Inflammatory Activities, Low Cytotoxicity Without Increasing Drug-Resistance to Bacteria Target” (Frontiers in Immunology, 2022)
